The values that follow come from paper PMC3499409, “Direct Interaction between EgFABP1, a Fatty Acid Binding Protein from Echinococcus granulosus, and Phospholipid Membranes” (PLoS Neglected Tropical Diseases, 2012).

Each structure is given as a SMILES string.

Type in all cases: binding
The target in assay [1] is T1, EgFABP1 (Echinococcus granulosus, UniProt Q02970).
T1 construct: gene FABP1; recombinant EgFABP1 from pET11b in E. coli, delipidated
As to the kind of experiment: fluorescence titration of the anthroyloxy fatty acid with protein.

Assay [2] addresses T2, EgFABP1 (Echinococcus granulosus, UniProt Q02970).
T2 construct: gene FABP1; recombinant EgFABP1 from pET11b in E. coli
T2 sequence (Q02970 1-133): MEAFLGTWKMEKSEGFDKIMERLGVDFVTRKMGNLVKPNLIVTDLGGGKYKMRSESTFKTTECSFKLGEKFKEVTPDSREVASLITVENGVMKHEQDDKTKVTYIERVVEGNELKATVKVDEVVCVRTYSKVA
As to the kind of experiment: protection from limited proteolysis (clostripain); GC of co-purified fatty acids.

The target in assay [3] is T2, EgFABP1. As to the kind of experiment: near-UV CD change; protection from limited proteolysis (clostripain); GC of co-purified fatty acids.

`CCCCCCC(CCCCCCCCCCC(=O)O)OC(=O)c1c2ccccc2cc2ccccc12` (stereo not shown) [12AS, 12-(9-anthroyloxy)stearic acid]: at EgFABP1 [1], the Kd (as a rule, the constant that tells how readily two partners part at equilibrium) stood at 120 ± 20 nM.

With `O=C(O)CCCCCCCCCCCCCCCOC(=O)c1c2ccccc2cc2ccccc12` [16AP, 16-(9-anthroyloxy)palmitic acid], binding at EgFABP1 [1] was put at a Kd of 13 ± 6 nM.

Regarding `CCCCCCCCCCCCCC(=O)O` [myristic acid], at EgFABP1 [2], the “protection from limited proteolysis (clostripain); GC of co-purified fatty acids” value is reported as “Results show that binding of FAs gives EgFABP1 significant relative protection against cleavage”.

Turning to `CCCCCCCC/C=C\CCCCCCCC(=O)O` [oleic acid], at EgFABP1 [3], the “near-UV CD change; protection from limited proteolysis (clostripain); GC of co-p” value was “the near-UV CD spectra (Figure S1) showed differences upon ligand binding, especially with oleic acid”.
